Reference: US12472168B2, “Ring-fused thiazolino 2-pyridones, methods for preparation thereof and their use in the treatment and/or prevention of a disease involving gram-positive bacteria” (Quretech Bio AB, priority 2017, dated 2025)
Converted amounts (≈) assume the structure as drawn.

Experiments:
Streptococcus = experiment: MIC and MBC assays; assay type: cell-based; details: compound alone, no antibiotic
Protocol: (§1) MIC was defined by the lowest concentration of the test compound that inhibits visible growth of pathogen of interest. The optical density of the pathogen of interest culture was measured by OD600.
(§2) MBC was determined colony forming units (CFUs) enumeration by serially diluting and plating bacterial cultures on BHI plates.
(§3) Thus, no antibiotic was used in Table 2.

E. faecalis = experiment: MIC and MBC assays; assay type: cell-based; details: Enterococcus faecalis, compound alone, no antibiotic; for MIC: overnight (18 hrs)
Protocol: as §1, §2, §3

MRSA [1] = experiment: Effect of combination with Oxacillin on MRSA, CFU counts; assay type: cell-based, Methicillin-resistant Staphylococcus aureus; details: compound 25 μM in combination with Oxacillin 9 μM, 37° C. 18 h
Protocol: (§4) The mixture (200 μL) was incubated at 37° C. for 18 h. A control without the test compound was performed in the same way.

MRSA [2] = experiment: Effect of compound alone on MRSA, CFU counts; assay type: cell-based, Methicillin-resistant Staphylococcus aureus; details: compound 25 μM alone, 37° C. 18 h
Protocol: as §4

MRSA [3] = experiment: Minimum Inhibitory Concentration (MIC) and Minimum Bactericidal Concentration (MBC) assays; assay type: cell-based, Methicillin-resistant Staphylococcus aureus; details: Staphylococcus aureus, compound alone, no antibiotic; for MIC: 18 h, overnight (18 hrs), read-out: MIC
Protocol: as §1, §2, §3

E. faecalis OG1RF [4] = experiment: Combination with Gentamicin in vivo, mouse model of CAUTI, OG1RF; parameters: species or system Enterococcus faecalis; details: C57BL/6Ncr mice
Protocol: (§5) Mice used in this study were six-week-old female wild-type C57BL/6Ncr mice. Mice were anesthetized by inhalation of isoflurane and implanted with a 5-mm length of platinum-cured silicone catheter. […] Mice were sacrificed at 48 hours post-infection by cervical dislocation after anaesthesia inhalation, and the bladders were aseptically harvested. Subsequently, the silicone implant was retrieved from the bladder. Catheters were placed in 1×PBS (1 mL), sonicated for 10 min, to detach E. faecalis and bladders were homogenized in 1×PBS (1 mL). For bacterial enumeration on catheters and bladder, samples were serially diluted and plated on BHI for CFU enumeration.

E. faecalis OG1RF [5] = experiment: Effect of combination of Gentamicin and Example 11 on E. faecalis OG1RF in vitro (FIG. 7); assay type: cell-based, Enterococcus faecalis; details: agent alone
[6] = system: Vancomycin Resistant Enterococcus (VRE) strain V583; experiment: Effect of combination of Example 11 and Vancomycin on VRE (V583), CFU counts; assay type: cell-based; details: for avg. CFU: VRE V583 OD 0.001, 18 h
Protocol: The mixture (200 μL) was incubated at 37° C. for 18 h Controls were performed without bacteria-vehicle (DMSO), Vancomycin vehicle (water) and BHI controls that use those as treatment to the inoculum, to ensure no previous bacterial contamination in the reagents. Bacterial CFU were counted as standard methods using serial dilution plated on BHI plates to determine the effect of each treatment.

[7] = system: vancomycin resistant E. faecalis V583; experiment: Combination with Vancomycin in vivo, mouse model of CAUTI, V583 (vancomycin resistant); parameters: species or system Enterococcus faecalis; details: C57BL/6Ncr mice
Protocol: as §5, with “catheter. Then, mice were infected immediately following catheter implantation with 50 μl of ˜2×10^7 CFU of E. faecalis OG1RF (FIG. 10A and FIG. 10B) or V583 (FIG. 11A and FIG. 11B) in PBS (1 mL) was introduced in the bladder lumen by transurethral inoculation.” for “catheter.”

E. faecalis OG1RF [8] = experiment: Combination with Vancomycin in vivo, mouse model of CAUTI, OG1RF (vancomycin sensitive); parameters: species or system Enterococcus faecalis; details: C57BL/6Ncr mice
Protocol: as §5, with “catheter. Then, mice were infected immediately following catheter implantation with 50 μl of ˜2×10^7 CFU of E. faecalis OG1RF (FIG. 10A and FIG. 10B) or V583 (FIG. 11A and FIG. 11B) in PBS (1 mL) was introduced in the bladder lumen by transurethral inoculation.” for “catheter.”

E. faecalis OG1RF [9] = experiment: Stand alone activity in vivo, mouse model of catheter-associated urinary tract infection (CAUTI); parameters: species or system Enterococcus faecalis; details: C57BL/6Ncr mice; 10 mg/kg intraperitoneally 24 hours post-infection; sacrificed 48 hours post-infection; compound alone
Protocol: as §5, with “catheter. Then, mice were infected immediately following catheter implantation with 50 μl of ˜2×10^7 CFU of E. faecalis OG1RF in PBS (1 mL) was introduced in the bladder lumen by transurethral inoculation.” for “catheter.”, “mL).” for “mL). For bacterial enumeration on catheters and bladder, samples were serially diluted and plated on BHI for CFU enumeration.”
Mice used in this study were six-week-old female wild-type C57BL/6Ncr mice. Mice were anesthetized by inhalation of isoflurane and implanted with a 5-mm length of platinum-cured silicone catheter.
Mice were sacrificed at 48 hours post-infection by cervical dislocation after anaesthesia inhalation, and the bladders were aseptically harvested. Subsequently, the silicone implant was retrieved from the bladder. Catheters were placed in 1×PBS (1 mL), sonicated for 10 min, to detach E. faecalis and bladders were homogenized in 1×PBS (1 mL). For bacterial enumeration on catheters and bladder, samples were serially diluted and plated on BHI for CFU enumeration.

[10] = 2 mg/kg intraperitoneally 24 hours post-infection, agent alone
[11] = 3 mg/kg intraperitoneally 24 hours post-infection, agent alone
[12] = combination of Vancomycin and Example 49, 3 mg/kg intraperitoneally
[13] = combination of Gentamicin and Example 49, 2 mg/kg intraperitoneally

## CCCCOc1ccc(-c2sc3c(OC)c(Cc4cccc5ccccc45)cc(=O)n3c2C(=O)O)cc1C [Example 9, 8-(4-Butoxy-3-methyl-phenyl)-5-methoxy-4-[(1-naphthyl)methyl]-2-oxo-7-thia-1-azabicyclo[4.3.0]nona-3,5,8-triene-9-carboxylic acid]
Streptococcus
  MBC: 8 µM (≈ 4.22 µg/mL)
E. faecalis
  MBC: 12.5 µM (≈ 6.6 µg/mL)
  MIC: 39 µM (≈ 20.6 µg/mL)
MRSA [1]; MRSA OD 0.1
  CFUs/ml: 2.6E+04 CFUs/ml
MRSA [1]; MRSA OD 1
  CFUs/ml: 3E+06 CFUs/ml
MRSA [2]; MRSA OD 0.001
  CFUs/ml: 8.0E+04 CFUs/ml
MRSA [2]; MRSA OD 0.1
  CFUs/ml: 4.4E+06 CFUs/ml
MRSA [2]; MRSA OD 1
  CFUs/ml: 5.0E+07 CFUs/ml
MRSA [3]
  MIC: 17 µM (≈ 8.97 µg/mL)
  MBC: 37 µM (≈ 19.5 µg/mL)

## CCCCCOc1ccc(-c2sc3c(OC)c(Cc4cccc5ccccc45)cc(=O)n3c2C(=O)O)cc1C [Example 8, 5-Methoxy-4-[(1-naphthyl)methyl]-2-oxo-8-[4-(pentyloxy)-3-methyl-phenyl]-7-thia-1-azabicyclo[4.3.0]nona-3,5,8-triene-9-carboxylic acid]
Streptococcus
  MBC: 7 µM (≈ 3.79 µg/mL)
E. faecalis
  MBC: 12.5 µM (≈ 6.77 µg/mL)
  MIC: 25 µM (≈ 13.5 µg/mL)
MRSA [1]; MRSA OD 0.1
  CFUs/ml: 1.7E+04 CFUs/ml
MRSA [1]; MRSA OD 1
  CFUs/ml: 1E+06 CFUs/ml
MRSA [2]; MRSA OD 0.001
  CFUs/ml: 4.0E+05 CFUs/ml
MRSA [2]; MRSA OD 0.1
  CFUs/ml: 6.0E+06 CFUs/ml
MRSA [2]; MRSA OD 1
  CFUs/ml: 6.0E+07 CFUs/ml
MRSA [3]
  MIC: 12 µM (≈ 6.5 µg/mL)
  MBC: 13 µM (≈ 7.04 µg/mL)

## gentamicin [reference compound]
E. faecalis OG1RF [4]; [10]
  reduction of bacterial titers in the bladders: did not result in reduction
  reduction of bacterial titers on catheters: did not result in reduction
E. faecalis OG1RF [5]
  number of observed bacterial CFUs/ml: did not result in a decrease

## CN[C@H](CC(C)C)C(=O)N[C@H]1C(=O)N[C@@H](CC(N)=O)C(=O)N[C@H]2C(=O)N[C@H]3C(=O)N[C@H](C(=O)N[C@H](C(=O)O)c4cc(O)cc(O)c4-c4cc3ccc4O)[C@H](O)c3ccc(c(Cl)c3)Oc3cc2cc(c3O[C@@H]2O[C@H](CO)[C@@H](O)[C@H](O)[C@H]2O[C@H]2C[C@](C)(N)[C@H](O)[C@H](C)O2)Oc2ccc(cc2Cl)[C@H]1O [Vancomycin, vancomycin]
[6]; Experiment 1, Vancomycin 1 μg/ml alone (Control)
  avg. CFU: 1.20E+09 CFU
[6]; Experiment 1, Vancomycin 2 μg/ml alone (Control)
  avg. CFU: 1.35E+09 CFU
[6]; Experiment 1, Vancomycin 4 μg/ml alone (Control)
  avg. CFU: 5.00E+08 CFU
[6]; Experiment 1, Vancomycin 8 μg/ml alone (Control)
  avg. CFU: 4.00E+08 CFU
[6]; Experiment 1, Vancomycin 16 μg/ml alone (Control)
  avg. CFU: 3.00E+08 CFU
[6]; Experiment 1, Vancomycin 32 μg/ml alone (Control)
  avg. CFU: 5.50E+08 CFU
[6]; Experiment 1, Vancomycin 64 μg/ml alone (Control)
  avg. CFU: 4.00E+07 CFU
[6]; Experiment 2, Vancomycin 1 μg/ml alone (Control)
  avg. CFU: 1.70E+09 CFU
[6]; Experiment 2, Vancomycin 2 μg/ml alone (Control)
  avg. CFU: 1.40E+09 CFU
[6]; Experiment 2, Vancomycin 4 μg/ml alone (Control)
  avg. CFU: 8.50E+08 CFU
[6]; Experiment 2, Vancomycin 8 μg/ml alone (Control)
  avg. CFU: 8.50E+08 CFU
[6]; Experiment 2, Vancomycin 16 μg/ml alone (Control)
  avg. CFU: 4.50E+08 CFU
[6]; Experiment 2, Vancomycin 32 μg/ml alone (Control)
  avg. CFU: 1.95E+06 CFU
[6]; Experiment 2, Vancomycin 64 μg/ml alone (Control)
  avg. CFU: 6.00E+04 CFU
[6]; Vancomycin alone at a concentration below 64 μg/ml, VRE V583
  effect on the bacterial growth: no or no substantial effect
[7]; [11]
  reduction of bacterial titers in the bladder: 0.3 log units
  reduction of bacterial titers on the catheter: no effect
E. faecalis OG1RF [8]; [11]
  reduction of bacterial titers in the bladders: did not result in reduction
  reduction of bacterial titers on the catheters: did not result in reduction

## CCCCCOc1ccc(-c2sc3c(OC)c(Cc4c5ccccc5cc5ccccc45)cc(=O)n3c2C(=O)O)cc1C [Example 49, 7-(anthracen-9-ylmethyl)-8-methoxy-2-(3-methyl-4-(pentyloxy)phenyl)-5-oxo-thiazolo[3,2-a]pyridine-3-carboxylic acid]
[7]; [11]
  reduction of bacterial titers in the bladder: about 0.5 log units
  reduction of bacterial titers on the catheter: no effect
[7]; [12]
  reduction of bacterial titers in the bladder: about 2 log units
  reduction of bacterial titers on the catheter: about 1 log unit
E. faecalis OG1RF [9]
  reduction of bacterial titers in the bladder: about 1.5 log units
  reduction of bacterial titers on the catheters: about 1.5 log units
E. faecalis OG1RF [4]; [10]
  reduction of bacterial titers in the bladders: about 0.2 log units
  reduction of bacterial titers on catheters: ~0.5 log units
E. faecalis OG1RF [4]; [13]
  reduction of bacterial titers in the bladder: about 2 log units
  reduction of bacterial titers on catheters: about 1.5 log units
E. faecalis OG1RF [8]; [11]
  reduction of bacterial titers in the bladders: about 1 log unit
  reduction of bacterial titers on the catheters: about 1 log unit
E. faecalis OG1RF [8]; [12]
  reduction of bacterial titers in the bladder: about 2 log units
  reduction of bacterial titers on the catheters: about 2 log units
